Literature values as cited in patent publication US6403864B1, “Precursor polypeptide of a plant growth factor, a gene encoding a precursor polypeptide of a plant growth factor and a method for promotion of plant growth” (Nagoya University, priority 1999, dated 2002).
Where no end group is shown, it is not given here. [ ]: non-standard residue; d: D form. sY = N[C@@H](Cc1ccc(OS(=O)(=O)O)cc1)C(=O)O

Tested on: plant cell
Conditions: compared with PSK-α

Substance: [sY]I[sY]T [PSK-β]
- Cell proliferation activity relative to PSK-α: less than one-tenth
